Measurements as given in patent US20230134760A1, “CAR AND NRF2 DUAL ACTIVATOR AGENTS FOR CYCLOPHOSPHAMIDE-BASED AND DOXORUBICIN-BASED TREATMENTS OF CANCER” (priority 2020, published 2023).

Experiments:
HO-1 = HO-1 expression in H9c2 cardiomyocytes (RT-PCR, Western blot); format: cell-based, rat
Procedure: Immortalized triple negative breast cancer cell lines MDA-MB-231 and BT549 were obtained from ATCC (Rockville, Md.). Additionally, the h9c2 cell line was purchased from ATCC (Rockville, Md.). […] Human iPSC-derived cardiomyocytes were maintained in Mtesr plus and supplemented according to protocol. These cells were treated for 2 hrs or an overnight as indicated. Following a 2 hr pretreatment, cells were co-treated with DOX at indicated concentrations for 6 or 22 hours. Following the overnight treatments, RNA or protein was isolated. HPH were seeded in collagen-coated 24 well plates and pretreated for 24 hrs. BT549 were seeded on inverted coverslips. After a 24 hr pretreatment, hepatocytes were co-administered as indicated and coverslips were inserted. The cell lines were used for less than 60 passages. After 24 h treatment, HPH, BT549, MDA-MB-231, and H9c2 cells were washed and a phenol-chloroform extraction was used to isolate total RNA with the TRIzol reagent (ThermoFisher, Rockford, Ill.). Reverse transcription was performed on extracted RNA (1 μg) to produce cDNA using the High Capacity cDNA Archive kit according to manufacturer's instructions (Applied Biosystems, Foster, Calif.). PCR was performed on an ABI StepOnePlus Real-Time PCR system (Applied Biosystems) using Fast SYBR Green Master Mix (Thermofisher, Rockford, Ill.) to determine gene expression changes. Primer sequences for CYP2B6, CYP3A4, HO-1, and glyceraldehyde-3-phosphate dehydrogenase (GAPDH) are: CYP2B6, [NT] ID NO: 1) and [NT] ID NO: 2); CYP3A4, [NT] ID NO: 3) and [NT] ID NO: 4); HO-1 [NT] ID NO: 5) and [NT] ID NO: 6) GAPDH, [NT] ID NO: 7) and [NT] ID NO: 8). Quantification of expression changes was done by the 2^ΔΔCt method, normalizing to GAPDH as the housekeeping gene and determining the fold change compared to control values (n=3). Protein was harvested using cell lysis buffer (Cell Signaling Technology, Danvers, Mass.) with a complete protease inhibitor cocktail (Roche, Mannheim, Germany) prior to homogenizing via sonification. […]

Nrf2 = Nrf2 expression and nuclear translocation in H9c2 cardiomyocytes (Western blot); format: cell-based, rat
Description: Protein was harvested using cell lysis buffer (Cell Signaling Technology, Danvers, Mass.) with a complete protease inhibitor cocktail (Roche, Mannheim, Germany) prior to homogenizing via sonification. Homogenized protein from treated HPH, H9c2, BT549, and MDA-MB-231 cells were resolved on NuPage Novex Bis-Tris 4-12% gels (Life Technologies) or NuPage Novex Bis-Tris 12% gel and transferred through electrophoresis onto immobilon-P polyvinylidene difluoride (PVDF) membranes. Membranes were blocked with 5% BSA or 5% milk in Tris-Buffer saline with Tween 20 (TBST). Further, membranes were incubated with specific antibodies against human CYP2B6 (1:1000, Abcam), CYP3A4 (1:1000, Millipore Sigma), HO-1 (1:1000, Abcam), cleaved caspase-3 (1:1000 Cell Signaling Technologies), Nrf2 (1:1000, Abcam), TATA-Binding Protein (1:500, Santa Cruz) β-actin (1:3000, Millipore Sigma) at 4° C. overnight. Following overnight incubation, horseradish peroxidase goat anti-mouse or anti-rabbit IgG antibodies were used for secondary incubation. Membranes were developed using SuperSignal West Pico Chemiluminescent Substrate (Thermo Scientific) or Radiance Q (Azure). Two TNBC cell lines, cardiomyocytes, and HPH protein samples were isolated and resolved on a 4-12% or 12% SDS PAGE gel followed by electrophoretic transfer to a PVDF membrane. […]

HPH/BT549 coculture = assay: LC-MS/MS determination of 4-OH-CPA formation in HPH/BT549 coculture medium; format: cell-based, human; conditions: DL7076 10 μM
Procedure: During the pre-treatment time, BT549 cells were seeded at 0.8×10^5 on collagen-coated coverslips modified to have their corners bent (FIG. 40a). […] 200 μL of cell culture medium was removed from each treatment group was immediately mixed with 20 μL of semicarbazide (SCZ; 2M) to stabilize 4-OH-CPA to its derivative 4-OH-CPA-SCZ. Once removed, samples were vortexed and left at room temperature for 10 minutes. 2 μM HMP was added as an internal standard and 200 μL acetonitrile was used to precipitate protein. Mass transitions were monitored at m/z: 261-140 for CPA, m/z: 334-221 for 4-OH-CPA-SCZ, and m/z: 180-135 for HMP under the positive multiple reaction monitoring mode.

MDA-MB-231 cells = assay: Cell viability assay, DOX-induced toxicity in MDA-MB-231 cells; format: cell-based; conditions: MDA-MB-231, DOX 2.5 μM
Procedure: Immortalized triple negative breast cancer cell lines MDA-MB-231 and BT549 were obtained from ATCC (Rockville, Md.). Additionally, the h9c2 cell line was purchased from ATCC (Rockville, Md.). […] Human iPSC-derived cardiomyocytes were maintained in Mtesr plus and supplemented according to protocol. These cells were treated for 2 hrs or an overnight as indicated. Following a 2 hr pretreatment, cells were co-treated with DOX at indicated concentrations for 6 or 22 hours. Following the overnight treatments, RNA or protein was isolated. HPH were seeded in collagen-coated 24 well plates and pretreated for 24 hrs. BT549 were seeded on inverted coverslips. After a 24 hr pretreatment, hepatocytes were co-administered as indicated and coverslips were inserted. The cell lines were used for less than 60 passages. H9c2 cells were seeded 0.8×10^5 in 24-well plates. […] A Cell Counting Kit-8 (Enzo) assay was carried out. Cell viability was described as a percent of vehicle control (0.1% DMSO).

`O=C(NCCN=C=S)c1c(-c2ccc3ccccc3c2)nc2sccn12` [DL7076, N-(2-Isothiocyanatoethyl)-6-(naphthalen-2-yl)imidazo[2,1-b]thiazole-5-carboxamide] was tested, and the “HO-1 mRNA induction” value (HO-1; H9c2, 10 μM, 24 hours, vs vehicle control) was 3- to 3.5 fold, the HO-1 protein induction (HO-1; H9c2, Western blot) was “robust induction in the expression of HO-1 was confirmed at a protein level” and the “HO-1 protein expression in the presence of DOX” value (HO-1; H9c2, pretreatment, DOX 2.5 μM) was “concentration dependent protection in the expression of HO-1”. The Nrf2 nuclear accumulation (Nrf2; nuclear extracts of H9c2, 1, 5, 10 μM) was “accumulating in a concentration dependent manner within the nucleus”, the Nrf2 expression (Nrf2; whole H9c2 cell lysates, 1, 5, 10 μM) was “increased Nrf2 expression in a concentration dependent manner” and the “rate and extent of CPA biotransformation to 4-OH-CPA” value (HPH/BT549 coculture; coculture medium) was “increased rate and extent of CPA biotransformed”. The 4-OH-CPA formation (HPH/BT549 coculture; fixed CPA 500 μM, 2 to 24 hours) was “enhanced 4-OH-CPA formation in the coculture medium at all time points” and the “reversal of DOX-induced toxicity (viability)” value (MDA-MB-231 cells) was “this efficient reversal was not shown”.
